Measured values reported in article PMC8373196, “In silico, in vitro, and ex vivo studies of the toxicological and pharmacological properties of the flavonoid 5,7-dihydroxy-3,8,4'-trimethoxy” (Brazilian Journal of Medical and Biological Research, 2021).
Read-outs that look alike come from different tables or passages of the source.

Tests used:
oral mucosa cells = experiment: Genotoxic effect on oral mucosa cells (ex vivo); format: cell-based, human
Description: (§1) The in vitro and ex vivo assays followed the guidelines provided in the Ethics Code of the World Medical Association and were approved by the Ethics Committee of the Patos University Center (protocol number: 3.621.284). For cell pellet preparation, blood samples (A, B, and O), and buccal mucosa were used from healthy young adults of both sexes between 18 and 40 years of age.
For evaluation of the genotoxic effect on oral mucosa cells, cell collection from the oral mucosa of the donors was performed with a cytobrush (smear brush collector) in the cheek area, and the material obtained was placed in 5 mL of 0.9% NaCl ([7]). Control samples were divided into two groups: cells treated with 0.0005% hydrogen peroxide (positive control) and cells not exposed to treatments (negative control). The cells were washed twice in saline solution and centrifuged for 10 min (900 g, 28°C). The cell pellets were re-suspended and kept in 5 mL of saline solution. After the third wash, they were exposed (ex vivo) to Pg-1 (50, 100, 500, and 1000 µg/mL) for 30 min; each test was performed in triplicate. The material was centrifuged for 5 min (900 g, 28°C) and the supernatant was removed before smear preparation. The cells were homogenized in a vortex and dried on the slides at room temperature for 15 min. Finally, they were fixed with a methanol:acetic acid mixture (3:1) for 15 min ([8]), and stained with 2% Giemsa. The cells were observed under an optical microscope and about 1000 cells were analyzed per slide. The data are reported as percentages representing the arithmetic average of three measurements ([9]). The cell toxicity was assessed by the presence of cellular indicators such as micronucleus, bi-nucleation, karyolysis, karyorrhexis, and macronucleus ([10]).

[1] = Hemolytic activity on human erythrocytes (in vitro); format: cell-based; conditions: both sexes; for hemolysis at 1 h, 1000 µg/mL: 0.5% red blood cell suspension, read-out: hemolysis rate
Description: as §1
For hemolytic activity, red blood cell (RBC) samples were mixed with 0.9% NaCl in a proportion of 1:30 and centrifuged for 5 min (1400 g, 28°C) to obtain a white blood cell and platelet-free 0.5% suspension. The tested substance (Pg-1) was added to 2 mL RBC suspensions at the concentrations of 50, 100, 500, and 1000 µg/mL. The control samples were divided into two groups: negative control - RBC suspension (0% hemolysis) and a positive control - RBC suspension with 1% Triton X-100 (100% hemolysis). The material was incubated for 1 h at 22±2°C. Afterwards, the samples were centrifuged for 5 min (1400 g, 28°C) and hemolysis was quantified by spectrophotometry at 540 nm wavelength ([6]).

SMILES: COc1ccc(-c2oc3c(OC)c(O)cc(O)c3c(=O)c2OC)cc1 [Pg-1, 5,7-dihydroxy-3,8,4'-trimethoxy]
- Binucleation (%) (oral mucosa cells; 50 µg/mL, 30 min): 3.00±0.33 %
- Karyolysis (%) (oral mucosa cells; 50 µg/mL, 30 min): 2.88±0.11 %
- Karyorrhexis (%) (oral mucosa cells; 50 µg/mL, 30 min): 1.77±0.58 %
- Macronucleus (%) (oral mucosa cells; 50 µg/mL, 30 min): 6.55±0.58%
- Micronucleus (%) (oral mucosa cells; 50 µg/mL, 30 min): 0.55±0.11 %
- Normal (%) (oral mucosa cells; 50 µg/mL, 30 min): 85.22±0.72 %
- Binucleation (%) (oral mucosa cells; 100 µg/mL, 30 min): 1.77±0.58 %
- Karyolysis (%) (oral mucosa cells; 100 µg/mL, 30 min): 2.44±0.44 %
- Karyorrhexis (%) (oral mucosa cells; 100 µg/mL, 30 min): 7.33±0.19%
- Macronucleus (%) (oral mucosa cells; 100 µg/mL, 30 min): 3.55±0.94 %
- Micronucleus (%) (oral mucosa cells; 100 µg/mL, 30 min): 0.22±0.11 %
- Normal (%) (oral mucosa cells; 100 µg/mL, 30 min): 84.67±1.07 %
- Binucleation (%) (oral mucosa cells; 500 µg/mL, 30 min): 2.33±0.50 %
- Karyolysis (%) (oral mucosa cells; 500 µg/mL, 30 min): 2.55±0.80 %
- Karyorrhexis (%) (oral mucosa cells; 500 µg/mL, 30 min): 3.66±1.01 %
- Macronucleus (%) (oral mucosa cells; 500 µg/mL, 30 min): 5.33±0.33%
- Micronucleus (%) (oral mucosa cells; 500 µg/mL, 30 min): 0.22±0.11 %
- Normal (%) (oral mucosa cells; 500 µg/mL, 30 min): 85.89±1.78 %
- Binucleation (%) (oral mucosa cells; 1000 µg/mL, 30 min): 1.55±0.58 %
- Karyolysis (%) (oral mucosa cells; 1000 µg/mL, 30 min): 1.44±0.22 %
- Karyorrhexis (%) (oral mucosa cells; 1000 µg/mL, 30 min): 1.44±0.11 %
- Macronucleus (%) (oral mucosa cells; 1000 µg/mL, 30 min): 3.66±0.19 %
- Micronucleus (%) (oral mucosa cells; 1000 µg/mL, 30 min): 0.33±0.01 %
- Normal (%) (oral mucosa cells; 1000 µg/mL, 30 min): 91.56±0.44 %
- toxicity in genotoxicity testing (oral mucosa cells; all concentrations (50-1000 µg/mL)): low toxicity
- hemolysis at 1 h ([1]; 0.5% red blood cell suspension (blood types A, B and O), all concentrations tested (50-1000 µg/mL), read-out: rate of hemolysis (class)): 0 to 40%
- hemolysis at 1 h, 1000 µg/mL ([1]; type A blood): < 5%
- hemolysis at 1 h, 1000 µg/mL ([1]; type B blood): < 17%
- hemolysis at 1 h, 1000 µg/mL ([1]; type O blood): < 9%

SMILES: OO [Positive control, hydrogen peroxide, reference compound]
- Binucleation (%) (oral mucosa cells; 0.0005% hydrogen peroxide): 4.33±0.38%
- Karyolysis (%) (oral mucosa cells; 0.0005% hydrogen peroxide): 5.44±0.72%
- Karyorrhexis (%) (oral mucosa cells; 0.0005% hydrogen peroxide): 5.11±0.67%
- Macronucleus (%) (oral mucosa cells; 0.0005% hydrogen peroxide): 4.55±0.80%
- Micronucleus (%) (oral mucosa cells; 0.0005% hydrogen peroxide): 4.00±0.88%
- Normal (%) (oral mucosa cells; 0.0005% hydrogen peroxide): 76.56±3.08%
- Normal (%) (oral mucosa cells; 0.0005% hydrogen peroxide, listed as positive control): < 80%
